Assay results as given in patent US8648086B2, “5,6-bicyclic heteroaryl-containing urea compounds as kinase inhibitors” (Ascepion Pharmaceuticals, Inc., priority 2009, dated 2014).

What was measured:
c-Met = biological target: T1, c-Met (Homo sapiens, UniProt P08581); assay: c-Met cell-based assay (phospho-c-Met ELISA, A549 cells); conditions: compound at 100 nM
T1 construct: endogenous in cells; host or cells: A549 cells
Procedure: A procedure for standard cell-based assay for c-Met kinase activity can be used to test compounds of this invention for their inhibitory effect on this kinase and to identify c-Met antagonists.
Specifically, a compound to be tested was first dissolved in DMSO to a concentration of 10 mM and stored at −20° C. The activity of c-Met in cells depends on the phosphorylation level at its intracellular domain induced by its ligand, Hepatocyte growth factor (HGF). In order to induce the cells to produce phosphate c-Met, paracrine HGF-dependent NSCLC (None Small Cell Lung Cancer) A549 cells were grown in DMEM with 10% FBS.
To screen compounds of this invention for their inhibitory effect on c-Met kinase, the ELISA kit (R&D Systems) was used. One day before screening procedure, A549 cells were grown in DMEM without the presence of serum. On the day of screening procedure, various concentrations of compounds (from 0.5 nM to 500 nM) were added into the culture medium. Two hours later, 20% of FBS (Fetal Bovine Serum) was added into the medium to stimulate the expression of phosphor-c-Met. After 20 minutes, cell lysate from approximately 5×10^5 A549 cells were reacted with anti-phosphor-c-Met or anti total c-Met antibody in 96 well plates. In the presence of detection antibody, the phosphor-c-Met or total c-Met can be detected with Streptavidin-HRP (R&D Systems) followed by chemiluminescence detection.

VEGFR2 = biological target: T2, VEGFR2 (Homo sapiens, UniProt P35968); assay: VEGFR2 cell-based assay (phospho-VEGFR2 ELISA, transfected CHO cells); conditions: compound at 100 nM, read-out: % VEGFR2 kinase activity remains
T2 construct: expressed in transfected cells; host or cells: CHO cells, pcDNA3.1 plasmid
T2 sequence (P35968 20-1356, species assumed): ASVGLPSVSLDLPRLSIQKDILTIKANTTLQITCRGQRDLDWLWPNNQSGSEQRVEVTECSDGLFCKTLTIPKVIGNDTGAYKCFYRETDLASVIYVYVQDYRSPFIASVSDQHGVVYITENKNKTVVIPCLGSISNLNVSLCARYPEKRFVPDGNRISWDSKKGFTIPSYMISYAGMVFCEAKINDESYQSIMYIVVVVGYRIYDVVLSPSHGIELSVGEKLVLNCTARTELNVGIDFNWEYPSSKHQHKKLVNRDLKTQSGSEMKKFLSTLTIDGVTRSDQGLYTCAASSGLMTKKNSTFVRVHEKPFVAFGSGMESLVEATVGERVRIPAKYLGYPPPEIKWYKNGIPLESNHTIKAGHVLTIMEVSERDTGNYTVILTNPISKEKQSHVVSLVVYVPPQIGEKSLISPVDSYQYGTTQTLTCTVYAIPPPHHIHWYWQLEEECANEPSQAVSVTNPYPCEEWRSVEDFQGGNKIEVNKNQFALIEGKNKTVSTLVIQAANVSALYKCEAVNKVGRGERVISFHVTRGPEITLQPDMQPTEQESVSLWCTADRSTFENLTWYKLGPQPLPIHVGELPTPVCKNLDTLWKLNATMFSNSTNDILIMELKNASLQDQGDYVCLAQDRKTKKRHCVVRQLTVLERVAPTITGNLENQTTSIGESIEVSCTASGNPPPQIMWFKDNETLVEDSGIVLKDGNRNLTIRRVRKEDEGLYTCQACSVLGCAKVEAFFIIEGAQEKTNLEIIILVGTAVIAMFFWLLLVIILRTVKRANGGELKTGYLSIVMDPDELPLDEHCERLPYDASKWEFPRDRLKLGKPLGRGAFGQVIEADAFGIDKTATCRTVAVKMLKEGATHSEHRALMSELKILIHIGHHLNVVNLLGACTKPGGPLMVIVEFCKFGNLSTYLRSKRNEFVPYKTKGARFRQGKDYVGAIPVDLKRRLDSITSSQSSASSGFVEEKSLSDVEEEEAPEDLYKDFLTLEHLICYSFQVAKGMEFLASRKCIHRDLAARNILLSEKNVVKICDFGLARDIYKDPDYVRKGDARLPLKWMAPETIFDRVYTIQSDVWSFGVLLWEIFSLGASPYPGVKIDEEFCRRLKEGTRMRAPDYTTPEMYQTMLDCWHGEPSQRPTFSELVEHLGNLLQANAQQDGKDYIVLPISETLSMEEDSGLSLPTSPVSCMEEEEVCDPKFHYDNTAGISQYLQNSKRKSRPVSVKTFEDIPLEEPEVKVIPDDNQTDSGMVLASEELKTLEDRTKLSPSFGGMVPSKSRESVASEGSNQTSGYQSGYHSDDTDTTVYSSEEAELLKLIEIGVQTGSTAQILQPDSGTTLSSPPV
Procedure: A standard cell-based assay for VEGFR2 kinase activity can be used to test compounds of this invention and to identify VEGFR2 antagonists.
Specifically, a compound to be tested was first dissolved in DMSO to a concentration of 10 mM and stored at −20° C. The activity of VEGFR2 in cells depends on the phosphorylation level at its intracellular domain induced by the ligand. In order to express VEGFR2 in the cells, full length VEGFR2 sequence was cloned into PC-DNA3.1 vector, the plasmid was then transfected into CHO cells. After 48 hours, the expression of VEGFR2 in transfected CHO cells was confirmed by regular western blotting.
To screen the compounds of this invention, the ELISA kit (R&D Systems) was used. One day before the screening, CHO cells transfected with full length VEGFR2 plasmid were grown in DMEM medium without the presence of serum. On the day of screening, various concentrations of compounds (From 0.5 nM to 500 nM) were added into DMEM medium. Two hours later, 20% of FBS (Fetal Bovine Serum) was added into the medium to stimulate the production of phosphor-VEGFR2. Cell lysate from approximately 5×10^5 transfected CHO cells were reacted with anti-phosphor-VEGFR2 or anti-total VEGFR2 antibody in 96 well plates. In the presence of detection antibody, the phosphor-VEGFR2 or total VEGFR2 were detected with Streptavidin-HRP (R&D Systems) followed by chemiluminescence detection.

[1] = test system: MDA-MB-231 human breast cancer cells; assay: In vivo anti-tumor efficacy, MDA-MB-231 xenograft; conditions: Breast cancer MDA-MB-231, nu/nu Balb/c mice, 100 mg/kg oral once per day, n = 2 × 3
Procedure: Female (nu/nu) Balb/c athymic mice at 4-6 weeks of age were injected subcutaneously (s.c.) with MDA-MB-231 human breast cancer cells, A549 human non-small cell lung cancer cells, U87-MG human glioblastoma cells, PC-3 human prostate cancer cells, HT-29 human colon cancer, BEL-7404 human hepatocellular carcinoma, or MKN-45 human gastric cancer cells (ATCC, 5×10^6 cells suspended in 100 μl DMEM medium). Treatment was initiated after the tumor mass grown from s.c. implanted tumor cells reached a median volume of 200-400 mm^3. Mice were randomized into groups with three in each group for small-sample efficacy tests such that the median tumor volume is nearly equal among all groups. For large-sample efficacy tests, mice were randomized into groups with thirteen or fourteen in each group. Each group was treated either with compounds (dissolved in 2:1 mixture of PEG400 and 0.01N HCl (v/v)) or without compounds (vehicle only, 2:1 mixture of PEG400 and 0.01N HCl (v/v)) once per day at dose 12.5, 25, 50 or 100 mg/kg by oral gavage. Tumor volumes were assessed at least twice weekly by caliper measurement from the start of treatment. Tumor volume was calculated using the formula ½×L×W^2 (L: length of tumor's long axis, W: length of tumor's short axis). Treatment was applied for at least two weeks or until the tumor volume reaches a size of ˜2500 mm^3 or greater. Mice were humanly sacrificed after the experiment.
The efficacy of compounds in reducing tumor growth was assessed by the index Tumor Growth Inhibition (TGI). TGI for a given treatment period was calculated using the group mean tumor volumes according to the formula: TGI=100×(VVehicle—group−VTreatment—group)÷VVehicle—group wherein VVehicle—group represents the mean tumor volume for the group treated with vehicle and VTreatment—group represents the mean tumor volume of the group treated with a compound.

PDGFRβ = biological target: T3, PDGFRβ (Homo sapiens, UniProt P09619); assay: PDGFRβ cell-based assay (phospho-PDGFRβ ELISA, transfected CHO cells); conditions: compound at 100 nM, read-out: % PDGFRβ kinase activity remains
T3 construct: expressed in transfected cells; host or cells: CHO cells, pcDNA3.1 plasmid
T3 sequence (P09619 33-1106, species assumed): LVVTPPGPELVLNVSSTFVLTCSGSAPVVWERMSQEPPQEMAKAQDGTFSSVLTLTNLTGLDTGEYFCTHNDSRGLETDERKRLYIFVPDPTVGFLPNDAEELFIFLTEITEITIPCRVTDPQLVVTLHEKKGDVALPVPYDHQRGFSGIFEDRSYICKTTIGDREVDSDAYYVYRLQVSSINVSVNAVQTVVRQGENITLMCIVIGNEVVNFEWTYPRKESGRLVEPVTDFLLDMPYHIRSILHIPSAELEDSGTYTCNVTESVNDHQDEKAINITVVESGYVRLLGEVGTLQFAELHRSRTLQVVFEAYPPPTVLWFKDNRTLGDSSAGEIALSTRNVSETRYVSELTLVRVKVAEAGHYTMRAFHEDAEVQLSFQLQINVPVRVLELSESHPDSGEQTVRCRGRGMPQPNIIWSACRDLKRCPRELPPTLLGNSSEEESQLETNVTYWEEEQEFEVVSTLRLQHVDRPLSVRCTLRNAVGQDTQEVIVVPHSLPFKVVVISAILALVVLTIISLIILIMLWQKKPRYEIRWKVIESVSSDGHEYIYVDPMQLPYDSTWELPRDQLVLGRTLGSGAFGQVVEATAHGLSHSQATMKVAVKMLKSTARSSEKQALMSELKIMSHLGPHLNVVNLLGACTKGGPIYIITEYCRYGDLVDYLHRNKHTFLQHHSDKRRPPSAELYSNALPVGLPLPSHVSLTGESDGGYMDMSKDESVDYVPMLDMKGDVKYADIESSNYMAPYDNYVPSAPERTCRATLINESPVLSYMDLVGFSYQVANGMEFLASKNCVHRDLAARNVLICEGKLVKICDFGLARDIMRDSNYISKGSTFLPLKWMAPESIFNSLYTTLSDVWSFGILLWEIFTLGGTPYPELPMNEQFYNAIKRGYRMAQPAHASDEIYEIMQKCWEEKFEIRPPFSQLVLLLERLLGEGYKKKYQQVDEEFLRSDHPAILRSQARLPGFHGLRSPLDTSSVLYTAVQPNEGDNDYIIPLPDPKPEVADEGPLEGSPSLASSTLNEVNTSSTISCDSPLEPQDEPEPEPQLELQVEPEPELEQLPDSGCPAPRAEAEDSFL
Procedure: A standard cell-based assay for PDGFRβ kinase activity can be used to test a compound of this invention and to identify PDGFRβ antagonists.
Specifically, a compound to be tested was first dissolved in DMSO to a concentration of 10 mM and stored at −20° C. The activity of PDGFRβ in cells depends on the phosphorylation level of its intracellular domain induced by the ligand. In order to express PDGFRβ in the cell, full length PDGFRβ sequence was cloned into PC-DNA3.1 vector. The plasmid was then transfected into CHO cells. After 48 hours following the transfection, the expression of PDGFRβ in transfected CHO cells was confirmed by regular western blotting.
To screen the compound of this invention, the ELISA kit (R&D Systems, Minneapolis, Minn., USA) was used. One day before the screening, CHO cells transfected with full length PDGFRβ plasmid were grown in DMEM medium without the presence of serum. On the day of screening, various concentrations of compounds (from 0.5 nM to 500 nM) were added into DMEM medium. Two hours later, 20% of FBS (Fetal Bovine Serum) was added into the medium to stimulate the expression of phosphor-PDGFRβ. Cell lysate from approximately 5×10^5 transfected CHO cells were reacted with anti-phosphor-PDGFRβ or anti-total PDGFRβ antibody in 96 well plates, in the presence of detection antibody, the phosphor-PDGFRβ or total PDGFRβ were detected with Streptavidin-HRP (R&D Systems), followed by chemiluminescent detection.

T1 sequence (P08581 25-1390): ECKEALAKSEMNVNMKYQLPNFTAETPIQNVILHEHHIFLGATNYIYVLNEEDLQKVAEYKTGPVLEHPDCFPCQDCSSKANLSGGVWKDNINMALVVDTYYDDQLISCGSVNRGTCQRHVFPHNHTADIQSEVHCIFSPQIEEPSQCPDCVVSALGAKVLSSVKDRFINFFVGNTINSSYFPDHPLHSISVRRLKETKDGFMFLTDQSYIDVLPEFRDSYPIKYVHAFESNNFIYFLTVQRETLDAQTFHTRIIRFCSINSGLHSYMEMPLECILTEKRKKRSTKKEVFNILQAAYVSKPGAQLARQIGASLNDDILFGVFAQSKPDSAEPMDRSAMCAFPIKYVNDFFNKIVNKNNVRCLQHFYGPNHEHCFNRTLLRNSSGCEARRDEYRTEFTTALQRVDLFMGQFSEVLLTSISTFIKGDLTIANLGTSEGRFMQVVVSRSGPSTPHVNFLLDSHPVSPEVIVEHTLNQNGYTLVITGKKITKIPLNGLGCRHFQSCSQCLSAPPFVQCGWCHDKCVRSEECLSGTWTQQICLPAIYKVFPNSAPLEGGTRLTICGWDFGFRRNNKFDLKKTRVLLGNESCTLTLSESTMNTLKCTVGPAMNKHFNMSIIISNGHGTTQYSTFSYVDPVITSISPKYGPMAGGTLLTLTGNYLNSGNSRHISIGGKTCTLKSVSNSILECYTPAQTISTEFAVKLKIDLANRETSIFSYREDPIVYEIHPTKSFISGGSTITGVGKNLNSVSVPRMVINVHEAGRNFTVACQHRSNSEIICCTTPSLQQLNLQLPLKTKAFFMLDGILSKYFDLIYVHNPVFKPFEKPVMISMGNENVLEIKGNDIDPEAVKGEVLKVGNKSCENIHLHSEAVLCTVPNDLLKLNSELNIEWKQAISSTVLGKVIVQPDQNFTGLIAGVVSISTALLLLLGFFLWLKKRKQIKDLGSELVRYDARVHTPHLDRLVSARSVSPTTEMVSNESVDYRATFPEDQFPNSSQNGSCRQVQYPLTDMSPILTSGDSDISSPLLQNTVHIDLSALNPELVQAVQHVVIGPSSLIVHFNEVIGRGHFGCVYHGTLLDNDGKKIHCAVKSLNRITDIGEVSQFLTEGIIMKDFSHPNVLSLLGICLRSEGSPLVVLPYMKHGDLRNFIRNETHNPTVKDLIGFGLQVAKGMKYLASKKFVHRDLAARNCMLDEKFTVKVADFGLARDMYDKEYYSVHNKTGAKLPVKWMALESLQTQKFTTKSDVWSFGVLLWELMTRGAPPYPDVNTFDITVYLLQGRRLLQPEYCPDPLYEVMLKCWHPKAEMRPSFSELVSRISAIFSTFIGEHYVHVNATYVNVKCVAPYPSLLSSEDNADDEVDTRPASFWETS

remaining activity at 0.1 µM (VEGFR2) | remaining activity at 0.1 µM (PDGFRβ) | Structure (SMILES) | % c-Met kinase activity remains (c-Met) | Tumor Growth Inhibition (TGI) [1]
< 70% |  | COc1ccc(Cl)cc1NC(=O)Nc1cccc2c1CCN2Cc1ccnc2[nH]ccc12.Cl [Example 1, 1-(2-Methoxyl-5-chlorophenyl)-3-[1-(1H-pyrrolo[2,3-b]pyridin-4-ylmethyl)-2,3-dihydro-1H-indol-4-yl]urea hydrochloride] | A (the percentage of kinase activity remains is below 70%) | A (the TGI is greater or equal to 50%)
< 70% | ≥ 70% | Cl.O=C(Nc1ccc(Cl)cc1F)Nc1cccc2c1ccn2Cc1c[nH]c2ncccc12 [Example 28, 1-(2-Fluoro-4-chlorophenyl)-3-[1-(1H-pyrrolo[2,3-b]pyridin-3-ylmethyl)-1H-indol-4-yl]urea hydrochloride] | A (the percentage of kinase activity remains is below 70%) | 
< 70% | ≥ 70% | Cl.O=C(Nc1cc(Cl)ccc1F)Nc1cccc2c1ccn2Cc1c[nH]c2ncccc12 [Example 29, 1-(2-Fluoro-5-chlorophenyl)-3-[1-(1H-pyrrolo[2,3-b]pyridin-3-ylmethyl)-1H-indol-4-yl]urea hydrochloride] | B (the percentage is greater or equal to 70%) | 
< 70% | ≥ 70% | Cl.O=C(Nc1cc(Br)ccc1F)Nc1cccc2c1ccn2Cc1c[nH]c2ncccc12 [Example 30, 1-(2-Fluoro-5-bromophenyl)-3-[1-(1H-pyrrolo[2,3-b]pyridin-3-ylmethyl)-1H-indol-4-yl]urea hydrochloride] | B (the percentage is greater or equal to 70%) | 
< 70% | ≥ 70% | COc1ccc(OC)c(NC(=O)Nc2cccc3c2ccn3Cc2c[nH]c3ncccc23)c1.Cl [Example 32, 1-(2,5-Dimethoxyphenyl)-3-[1-(1H-pyrrolo[2,3-b]pyridin-3-ylmethyl)-1H-indol-4-yl]urea hydrochloride] | A (the percentage of kinase activity remains is below 70%) | 
< 70% | ≥ 70% | Cl.O=C(Nc1cccc(F)c1)Nc1cccc2c1ccn2Cc1ccnc2[nH]ccc12 [Example 35, 1-(3-Fluorophenyl)-3-[1-(1H-pyrrolo[2,3-b]pyridin-4-ylmethyl)-1H-indol-4-yl]urea hydrochloride] | A (the percentage of kinase activity remains is below 70%) | 
< 70% | ≥ 70% | Cl.O=C(Nc1ccc(F)cc1)Nc1cccc2c1ccn2Cc1ccnc2[nH]ccc12 [Example 36, 1-(4-Fluorophenyl)-3-[1-(1H-pyrrolo[2,3-b]pyridin-4-ylmethyl)-1H-indol-4-yl]urea hydrochloride] | A (the percentage of kinase activity remains is below 70%) | 
< 70% | ≥ 70% | COc1cccc(NC(=O)Nc2cccc3c2ccn3Cc2ccnc3[nH]ccc23)c1.Cl [Example 47, 1-(3-Methoxyphenyl)-3-[1-(1H-pyrrolo[2,3-b]pyridin-4-ylmethyl)-1H-indol-4-yl]urea hydrochloride] | A (the percentage of kinase activity remains is below 70%) | 
< 70% | ≥ 70% | Cl.O=C(Nc1ccc(C(F)(F)F)cc1)Nc1cccc2c1ccn2Cc1ccnc2[nH]ccc12 [Example 52, 1-(4-Trifluoromethylphenyl)-3-[1-(1H-pyrrolo[2,3-b]pyridin-4-ylmethyl)-1H-indol-4-yl]urea hydrochloride] | B (the percentage is greater or equal to 70%) | 
≥ 70% | ≥ 70% | Cl.N#Cc1ccc(NC(=O)Nc2cccc3c2ccn3Cc2ccnc3[nH]ccc23)cc1 [Example 54, 1-(4-Cyanophenyl)-3-[1-(1H-pyrrolo[2,3-b]pyridin-4-ylmethyl)-1H-indol-4-yl]urea hydrochloride] | B (the percentage is greater or equal to 70%) | 
< 70% | ≥ 70% | Cl.O=C(Nc1ccc(Cl)cc1F)Nc1cccc2c1ccn2Cc1ccnc2[nH]ccc12 [Example 55, 1-(2-Fluoro-4-chlorophenyl)-3-[1-(1H-pyrrolo[2,3-b]pyridin-4-ylmethyl)-1H-indol-4-yl]urea hydrochloride] | B (the percentage is greater or equal to 70%) | 
